Test results published in ChEMBL document CHEMBL4665764, “Synthesis and Biological Evaluation of Celastrol Derivatives as Potential Immunosuppressive Agents” (J Nat Prod, 2020).

Assays:
[1] = Cytotoxicity against BALB/c mouse T cell assessed as reduction in cell viability after 48 hrs by CCK8 assay; format: tissue-based, T cell line; settings: BALB/c mouse T cells
[2] = Antiproliferative activity against Con A-induced BALB/c mouse T cell after 48 hrs by CCK8 assay; format: functional, tissue-based, T cell line
[3] = Selectivity index, ratio of CC50 for cytotoxicity against BALB/c mouse T cell to IC50 for antiproliferative activity against Con A-induced BALB/c mouse T cell; set-up: species or system T cell line

## CC1=C(O)C(=O)C=C2C1=CC=C1[C@@]2(C)CC[C@@]2(C)[C@@H]3C[C@](C)(C(=O)OCc4ccccc4)CC[C@]3(C)CC[C@]12C
[1]
  CC50 at 48 h: 1100 nM
[2]
  IC50: 1060 nM
[3]
  Ratio CC50/IC50: 1

## COC(=O)[C@]1(C)CC[C@]2(C)CC[C@]3(C)C4=CC=C5C(=CC(=O)C(O)=C5C)[C@]4(C)CC[C@@]3(C)[C@@H]2C1 [PRISTIMERIN]
[1]
  CC50 at 48 h: 2400 nM
[2]
  IC50: 1200 nM
[3]
  Ratio CC50/IC50: 2

## CC1=C(O)C(=O)C=C2C1=CC=C1[C@@]2(C)CC[C@@]2(C)[C@@H]3C[C@](C)(C(=O)O)CC[C@]3(C)CC[C@]12C [CELASTROL]
[1]
  CC50 at 48 h: 100 nM
[2]
  IC50: 83 nM
[3]
  Ratio CC50/IC50: 1.5

## CCCCNC(=O)[C@]1(C)CC[C@]2(C)CC[C@]3(C)C4=CC=C5C(=CC(=O)C(O)=C5C)[C@]4(C)CC[C@@]3(C)[C@@H]2C1
[1]
  CC50 at 48 h: 1200 nM
[2]
  IC50: 63 nM
[3]
  Ratio CC50/IC50: 19.3

## C#CCOC(=O)[C@]1(C)CC[C@]2(C)CC[C@]3(C)C4=CC=C5C(=CC(=O)C(O)=C5C)[C@]4(C)CC[C@@]3(C)[C@@H]2C1
[1]
  CC50 at 48 h: 1400 nM
[2]
  IC50: 1120 nM
[3]
  Ratio CC50/IC50: 1.3

## CC1=C(O)C(=O)C=C2C1=CC=C1[C@@]2(C)CC[C@@]2(C)[C@@H]3C[C@](C)(C(=O)NCCN(C)C)CC[C@]3(C)CC[C@]12C
[1]
  CC50 at 48 h: 1200 nM
[2]
  IC50: 225 nM
[3]
  Ratio CC50/IC50: 5.5

## CC1=C(O)C(=O)C=C2C1=CC=C1[C@@]2(C)CC[C@@]2(C)[C@@H]3C[C@](C)(C(=O)NCc4cccc(C)c4)CC[C@]3(C)CC[C@]12C
[1]
  CC50 at 48 h: 1000 nM
[2]
  IC50: 294 nM
[3]
  Ratio CC50/IC50: 3.4

## CC1=C(O)C(=O)C=C2C1=CC=C1[C@@]2(C)CC[C@@]2(C)[C@@H]3C[C@](C)(C(=O)OCc4ccccc4C)CC[C@]3(C)CC[C@]12C
[1]
  CC50 at 48 h: 1700 nM
[2]
  IC50: 1040 nM
[3]
  Ratio CC50/IC50: 1.6

## CC1=C(O)C(=O)C=C2C1=CC=C1[C@@]2(C)CC[C@@]2(C)[C@@H]3C[C@](C)(C(=O)NC(C)C)CC[C@]3(C)CC[C@]12C
[1]
  CC50 at 48 h: 800 nM
[2]
  IC50: 83 nM
[3]
  Ratio CC50/IC50: 6.9

## COCCCOC(=O)[C@]1(C)CC[C@]2(C)CC[C@]3(C)C4=CC=C5C(=CC(=O)C(O)=C5C)[C@]4(C)CC[C@@]3(C)[C@@H]2C1
[1]
  CC50 at 48 h: 1700 nM
[2]
  IC50: 994 nM
[3]
  Ratio CC50/IC50: 1.7

## CCCNC(=O)[C@]1(C)CC[C@]2(C)CC[C@]3(C)C4=CC=C5C(=CC(=O)C(O)=C5C)[C@]4(C)CC[C@@]3(C)[C@@H]2C1
[1]
  CC50 at 48 h: 1100 nM
[2]
  IC50: 64 nM
[3]
  Ratio CC50/IC50: 16.5

## C#CCOC(=O)[C@]1(C)CC[C@]2(C)CC[C@]3(C)C4=C[C@@H](c5c[nH]c6ccc(Cl)cc56)c5c(cc(OC(C)=O)c(OC(C)=O)c5C)[C@]4(C)CC[C@@]3(C)[C@@H]2C1
[1]
  CC50 at 48 h: ≥ 10000 nM
[2]
  IC50: ≥ 10000 nM

## CCCOC(=O)[C@]1(C)CC[C@]2(C)CC[C@]3(C)C4=CC=C5C(=CC(=O)C(O)=C5C)[C@]4(C)CC[C@@]3(C)[C@@H]2C1
[1]
  CC50 at 48 h: 1200 nM
[2]
  IC50: 924 nM
[3]
  Ratio CC50/IC50: 1.3

## C#CCOC(=O)[C@]1(C)CC[C@]2(C)CC[C@]3(C)C4=C[C@@H](c5c[nH]c6cc(OC)ccc56)c5c(cc(OC(C)=O)c(OC(C)=O)c5C)[C@]4(C)CC[C@@]3(C)[C@@H]2C1
[1]
  CC50 at 48 h: 3000 nM
[2]
  IC50: ≥ 10000 nM

## CC1=C(O)C(=O)C=C2C1=CC=C1[C@@]2(C)CC[C@@]2(C)[C@@H]3C[C@](C)(C(=O)OCC4CCCCC4)CC[C@]3(C)CC[C@]12C
[1]
  CC50 at 48 h: 1300 nM
[2]
  IC50: 1260 nM
[3]
  Ratio CC50/IC50: 1

## CC1=C(O)C(=O)C=C2C1=CC=C1[C@@]2(C)CC[C@@]2(C)[C@@H]3C[C@](C)(C(=O)OCCCl)CC[C@]3(C)CC[C@]12C
[1]
  CC50 at 48 h: 1100 nM
[2]
  IC50: 771 nM
[3]
  Ratio CC50/IC50: 1.4

## C#CCOC(=O)[C@]1(C)CC[C@]2(C)CC[C@]3(C)C4=C[C@@H](c5c[nH]c6ccc(Br)cc56)c5c(cc(OC(C)=O)c(OC(C)=O)c5C)[C@]4(C)CC[C@@]3(C)[C@@H]2C1
[1]
  CC50 at 48 h: ≥ 10000 nM
[2]
  IC50: ≥ 10000 nM

## CC1=C(O)C(=O)C=C2C1=CC=C1[C@@]2(C)CC[C@@]2(C)[C@@H]3C[C@](C)(C(=O)On4nnc5ccccc54)CC[C@]3(C)CC[C@]12C
[1]
  CC50 at 48 h: 15100 nM
[2]
  IC50: 1880 nM
[3]
  Ratio CC50/IC50: 8.1

## COC(=O)[C@H](Cc1ccc(O)cc1)NC(=O)[C@]1(C)CC[C@]2(C)CC[C@]3(C)C4=CC=C5C(=CC(=O)C(O)=C5C)[C@]4(C)CC[C@@]3(C)[C@@H]2C1
[1]
  CC50 at 48 h: 1400 nM
[2]
  IC50: 205 nM
[3]
  Ratio CC50/IC50: 6.9

## CCNC(=O)[C@]1(C)CC[C@]2(C)CC[C@]3(C)C4=CC=C5C(=CC(=O)C(O)=C5C)[C@]4(C)CC[C@@]3(C)[C@@H]2C1
[1]
  CC50 at 48 h: 1100 nM
[2]
  IC50: 31 nM
[3]
  Ratio CC50/IC50: 34.6

## COCCOC(=O)[C@]1(C)CC[C@]2(C)CC[C@]3(C)C4=CC=C5C(=CC(=O)C(O)=C5C)[C@]4(C)CC[C@@]3(C)[C@@H]2C1
[1]
  CC50 at 48 h: 1300 nM
[2]
  IC50: 454 nM
[3]
  Ratio CC50/IC50: 2.8

## CCOC(=O)[C@]1(C)CC[C@]2(C)CC[C@]3(C)C4=CC=C5C(=CC(=O)C(O)=C5C)[C@]4(C)CC[C@@]3(C)[C@@H]2C1
[1]
  CC50 at 48 h: 1400 nM
[2]
  IC50: 820 nM
[3]
  Ratio CC50/IC50: 1.3

## C=CCOC(=O)[C@]1(C)CC[C@]2(C)CC[C@]3(C)C4=CC=C5C(=CC(=O)C(O)=C5C)[C@]4(C)CC[C@@]3(C)[C@@H]2C1
[1]
  CC50 at 48 h: 1300 nM
[2]
  IC50: 1180 nM
[3]
  Ratio CC50/IC50: 1.1

## C#CCOC(=O)[C@]1(C)CC[C@]2(C)CC[C@]3(C)C4=C[C@@H](c5c[nH]c6ccc(F)cc56)c5c(cc(OC(C)=O)c(OC(C)=O)c5C)[C@]4(C)CC[C@@]3(C)[C@@H]2C1
[1]
  CC50 at 48 h: 5600 nM
[2]
  IC50: ≥ 10000 nM

## C#CCOC(=O)[C@]1(C)CC[C@]2(C)CC[C@]3(C)C4=C[C@@H](c5c[nH]c6cc(Cl)ccc56)c5c(cc(OC(C)=O)c(OC(C)=O)c5C)[C@]4(C)CC[C@@]3(C)[C@@H]2C1
[1]
  CC50 at 48 h: 4100 nM
[2]
  IC50: ≥ 10000 nM

## C#CCOC(=O)[C@]1(C)CC[C@]2(C)CC[C@]3(C)C4=C[C@@H](c5c[nH]c6c(C)cccc56)c5c(cc(OC(C)=O)c(OC(C)=O)c5C)[C@]4(C)CC[C@@]3(C)[C@@H]2C1
[1]
  CC50 at 48 h: ≥ 10000 nM
[2]
  IC50: ≥ 10000 nM

## C#CCOC(=O)[C@]1(C)CC[C@]2(C)CC[C@]3(C)C4=C[C@@H](c5c[nH]c6ccc(C)cc56)c5c(cc(OC(C)=O)c(OC(C)=O)c5C)[C@]4(C)CC[C@@]3(C)[C@@H]2C1
[1]
  CC50 at 48 h: ≥ 10000 nM
[2]
  IC50: ≥ 10000 nM

## C#CCOC(=O)[C@]1(C)CC[C@]2(C)CC[C@]3(C)C4=C[C@@H](c5c[nH]c6cc(F)ccc56)c5c(cc(OC(C)=O)c(OC(C)=O)c5C)[C@]4(C)CC[C@@]3(C)[C@@H]2C1
[1]
  CC50 at 48 h: ≥ 10000 nM
[2]
  IC50: ≥ 10000 nM

## C#CCOC(=O)[C@]1(C)CC[C@]2(C)CC[C@]3(C)C4=C[C@@H](c5c[nH]c6ccccc56)c5c(cc(OC(C)=O)c(OC(C)=O)c5C)[C@]4(C)CC[C@@]3(C)[C@@H]2C1
[1]
  CC50 at 48 h: ≥ 10000 nM
[2]
  IC50: ≥ 10000 nM

## CC1=C(O)C(=O)C=C2C1=CC=C1[C@@]2(C)CC[C@@]2(C)[C@@H]3C[C@](C)(C(=O)OCc4cccc(C)c4)CC[C@]3(C)CC[C@]12C
[1]
  CC50 at 48 h: 1900 nM
[2]
  IC50: 1600 nM

## C#CCOC(=O)[C@]1(C)CC[C@]2(C)CC[C@]3(C)C4=C[C@@H](c5c[nH]c6ccc(OC)cc56)c5c(cc(OC(C)=O)c(OC(C)=O)c5C)[C@]4(C)CC[C@@]3(C)[C@@H]2C1
[1]
  CC50 at 48 h: ≥ 10000 nM
[2]
  IC50: ≥ 10000 nM
